# According to patent publication US20110190313A1, “Treatment of Pulmonary Arterial Hypertension” (priority 2008, published 2011):
# Read-outs that look alike come from different tables or passages of the source.
# What was measured:
# [1] = system: patients with severe pulmonary arterial hypertension; assay: Example 2 trial: 6-minute walk test (6MWD); format: in vivo, human; settings: for 6MWD change vs. baseline, mean (SD): study end, patients with both baseline and end of study assessment
# Excerpt: Secondary objectives included changes in hemodynamic variables, and in FC.
# (§1) Patients (≧18 years) in FC II-IV with idiopathic or familial PAH, or PAH associated with systemic sclerosis or congenital heart disease (WHO group I) and PVR>300 dynes·sec·cm^−5 were eligible. Patients were on stable PAH medication(s) for >3 months before enrolment. Females of child-bearing potential used double-barrier contraception.
# (§2) The primary efficacy outcome was the between-group difference in the 6MW distance (6MWD) at baseline and at 6 months. Complete hemodynamic parameters were assessed with standard techniques. FC was classified according to the WHO modification of the NYHA criteria for pulmonary hypertension.
# (§3) Analyses were conducted within the intention-to-treat (ITT) population, which consisted of all patients who received at least one dose of study medication. Dropouts were excluded from the analysis The primary efficacy analysis (6MWD) was performed using analysis of covariance (ANCOVA) with baseline value as a covariate. ANCOVAs were also used to assess between-group differences in pulmonary hemodynamics and blood gases. Missing data were not imputed so only subjects with assessment both at baseline and post-treatment were included in the ANCOVA analysis. FC was compared using Fisher's test.
# [2] = system: patients with severe pulmonary arterial hypertension; assay: Example 2 trial: pulmonary hemodynamics; format: in vivo, human
# Method: as §1, §2, §3
# [3] = system: patients with severe pulmonary arterial hypertension; assay: Example 2 trial: blood gases (oxygen saturation); format: in vivo, human
# Method: as §3
# [4] = system: patients with severe pulmonary arterial hypertension
# [5] = end of study, with imatinib treatment
structure (smiles),measurement,setting,value
Cc1ccc(NC(=O)c2ccc(CN3CCN(C)CC3)cc2)cc1Nc1nccc(-c2cccnc2)n1 [imatinib],6MWD treatment difference imatinib vs. placebo,"[1]; ANCOVA of ITT population, p=0.21",21.7 m
same,"6MWD change vs. baseline, mean (SD)",[1],+22±63 m
same,"6MWD change vs. baseline, mean (SD)",[1]; listed as Imatinib,22 (63) m
same,"PAPm, imatinib vs. placebo","[2]; 6 months, result in words",no significant difference
same,Cardiac output (CO) mean treatment difference vs. placebo,"[2]; 6 months, 95% CI 0.10, 1.26, p=0.02",0.68 L/min
same,PVR mean treatment difference vs. placebo,"[2]; 6 months, 95% CI −383.7, −77.8, p=0.004",−230.7 dynes
same,"Change between baseline and study end for PAPm, CO, PVR or 6MWD","[2]; post-hoc subgroup, baseline PVR<1,000 dynes·sec·cm^−5",no major differences
same,"Change between baseline and study end for PAPm, CO, PVR and 6MWD compared with placebo","[2]; post-hoc subgroup, baseline PVR≧1,000 dynes·sec·cm^−5",substantial improvement
same,"Systemic arterial oxygen saturation, mean treatment difference vs. placebo","[3]; 95% CI 0.5, 4.3",2.4%
same,"Mixed venous oxygen saturation, mean treatment difference vs. placebo","[3]; 95% CI 2.1, 11.9",7.0%
same,Mixed venous oxygen saturation,[3]; baseline,58±10%
same,Systemic arterial oxygen saturation,[3]; baseline,88±9%
same,Mixed venous oxygen saturation,[3]; [5],65±7%
same,Systemic arterial oxygen saturation,[3]; [5],93±5%
same,Haemoglobin level (±SD),[4]; after the fall with imatinib,128 ± 16 g/L
same,Haemoglobin level (±SD),[4]; before the fall (start value),151 ± 14 g/L
same,Deaths in group,[4]; during 6 month study,three
same,"AE headache, number of patients",[4]; imatinib group,10
same,"AE headache, percent of patients",[4]; imatinib group,35.7%
same,"AE nausea, percent of patients",[4]; imatinib group,50%
same,"AE peripheral edema, number of patients",[4]; imatinib group,7
same,"AE peripheral edema, percent of patients",[4]; imatinib group,25.0%
same,"Patients reporting AEs of mild intensity, number",[4]; imatinib group,21
same,"Patients reporting AEs of mild intensity, percent",[4]; imatinib group,75%
same,"Patients reporting AEs of moderate intensity, number",[4]; imatinib group,20
same,"Patients reporting AEs of moderate intensity, percent",[4]; imatinib group,71%
same,"Patients reporting AEs of severe intensity, number",[4]; imatinib group,9
same,"Patients reporting AEs of severe intensity, percent",[4]; imatinib group,32%
same,Patients with rupture of the pulmonary artery (fatal),[4]; imatinib group,One
same,"Serious AEs (SAEs), number of recipients",[4]; imatinib group,11
same,"Serious AEs (SAEs), percent of recipients",[4]; imatinib group,39%
same,"AE nausea, number of patients",[4]; imatinib group N = 28,14
same,Safety and tolerability in patients with PAH,"[4]; over 6 months, result in words",safe and well tolerated
same,"Changes over time in other laboratory variables (white blood cell count, platelet count, albumin, liver enzymes, creatinine, electrolytes etc.)",[4]; result in words,no relevant changes
